Experimental data published in patent US11667602B2, “Compounds and their use” (AstraZeneca AB, priority 2020, dated 2023).
≈ marks a conversion by molar mass, not a printed value. Like-named read-outs stand apart in the source and are kept apart here.

Legend:
[1] = cited from earlier work
[2] = Rat Hepatocyte Stability (Test E); format: in vitro ADME; settings: rat, hepatocytes, geometric mean if run multiple times
Outline: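 Run per the published AstraZeneca-type rat hepatocyte stability protocol (Wernevik et al. panel). Values are mean intrinsic clearance, Clint in μl/min/10^6 cells; geometric mean used for repeated runs.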

[3] = Human Hepatocyte Stability (Test D); format: in vitro ADME; settings: human, cryopreserved pooled human hepatocytes (LiverPool 10-Donor), geometric mean if run multiple times
Outline: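 Pooled 10-donor cryopreserved human hepatocytes (≥80% viable) in L-15 medium at 0.25×10^6 cells per 0.25 mL well. Compound added from 100 μM acetonitrile solution; incubated at 37 °C with shaking, acetonitrile-quenched, LC-MS analysed. Clint (μL/min/10^6 cells) from ln % parent vs time slope; geometric mean of repeat runs.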

[4] = target: T1, human RXFP1 (Homo sapiens, UniProt Q9HBX9); experiment: RXFP1 Hu cAMP (Test A); format: cell-based; parameters: expressed in transfected cells; host or cells: Jump-In T-REx CHO-K1 cells (ThermoFisher), induced with 10 ng/ml doxycycline for 24 h
T1 sequence (Q9HBX9 1-757): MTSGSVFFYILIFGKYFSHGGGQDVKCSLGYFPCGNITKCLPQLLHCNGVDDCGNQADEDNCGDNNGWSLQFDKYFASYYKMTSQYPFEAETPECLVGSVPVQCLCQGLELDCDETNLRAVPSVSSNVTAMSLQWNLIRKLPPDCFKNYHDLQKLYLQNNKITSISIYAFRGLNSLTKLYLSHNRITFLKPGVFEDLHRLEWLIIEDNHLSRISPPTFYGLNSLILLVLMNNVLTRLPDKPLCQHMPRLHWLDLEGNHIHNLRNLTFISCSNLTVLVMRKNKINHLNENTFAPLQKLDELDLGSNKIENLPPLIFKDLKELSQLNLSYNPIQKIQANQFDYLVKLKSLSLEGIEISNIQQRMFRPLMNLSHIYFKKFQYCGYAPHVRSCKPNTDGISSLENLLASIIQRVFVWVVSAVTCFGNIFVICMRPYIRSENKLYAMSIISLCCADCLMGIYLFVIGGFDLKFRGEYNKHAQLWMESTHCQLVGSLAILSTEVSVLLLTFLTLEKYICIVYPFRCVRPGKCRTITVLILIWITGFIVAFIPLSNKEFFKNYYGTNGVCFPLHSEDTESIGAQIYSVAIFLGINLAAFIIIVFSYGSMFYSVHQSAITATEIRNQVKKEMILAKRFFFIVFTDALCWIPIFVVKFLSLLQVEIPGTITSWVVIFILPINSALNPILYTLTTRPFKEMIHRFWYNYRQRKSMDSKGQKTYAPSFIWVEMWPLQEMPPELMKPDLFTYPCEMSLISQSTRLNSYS
Outline: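 Competitive HTRF cAMP readout (2 h, room temperature) in CHO-K1 cells stably expressing human RXFP1, induced with 10 ng/ml doxycycline for 24 h; IBMX 0.5 mM final.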

[5] = Human Plasma Protein Binding (Test B); format: in vitro ADME; settings: fraction unbound (fu)
Outline: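 Human plasma protein binding run per the published Wernevik et al. (2020) integrated DMPK panel protocol. Values are fraction unbound (fu, % free); repeat runs averaged arithmetically.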

[6] = Human Liver Microsomal Stability (Test C); format: in vitro ADME; settings: human, liver microsomes
Outline: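 Human liver microsome incubation per the Wernevik et al. integrated DMPK panel protocol. Intrinsic clearance reported as CLint in μl/min/mg protein, averaged arithmetically over repeat runs.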

[7] = Solubility (Test F); format: physicochemical; settings: arithmetic mean if run multiple times
Experimental: The assay was conducted according to the Solubility Assay described in pages 164-167 of Wernevik, J. et al., “A Fully Integrated Assay Panel for Early Drug Metabolism and Pharmacokinetics Profiling”, Assay and Drug Development Technologies, 2020, 18(4), 157-179. Data are reported in Table 36 as solubility ([…]. Where the assay was run multiple times for the same compound, the arithmetic mean is reported.

[8] = RXFP1 Hu cAMP, read-out: Test A EC50

Compound | hepatocyte CLint [2] [µL/min/1e6 cells] | hepatocyte CLint at 1 µM [3] [µL/min/1e6 cells] | Test A Sinf ([4]; RXFP1 Hu cAMP) [%] | EC50 [4, 8] [nM] | Test B Human Plasma Protein Binding (% free) [5] [% free] | microsomal CLint [6] [µL/min/mg] | solubility [7] [µM] | significant blood pressure drop ([1]; approximately one third of the patients, after receiving serelaxin intravenously) [mm Hg] | markers of cardiac, renal and hepatic damage and congestion ([1]; continuous intravenous administration to hospitalized patients) | clearance from the patients' circulation ([1]; patients, positive effects rapidly disappeared once intravenous injection stopped) | EC50 ([4]; Test A EC50, RXFP1 Hu cAMP) [nM]
serelaxin |  |  |  |  |  |  |  | > 40 | improved | rapid clearance | 
COc1c(F)cc(O[C@H]2CC[C@@](C)(C(=O)O)CC2)cc1C(=O)N[C@@H]1[C@H]2CC[C@H](C2)[C@@H]1C(=O)NCC1(C)CCC1 [Example 374] | 21 | 5.3 |  |  | 2.9 | 44 | 680 (≈ 370 µg/mL) |  |  |  | 44
COc1cc(F)c(-c2ccc(S(N)(=O)=O)cc2)cc1C(=O)N[C@@H]1[C@H]2CC[C@H](C2)[C@@H]1C(=O)Nc1cccc(S(=O)(=O)C(F)(F)F)c1 [Example 248] | 32 | 18 | 108 | 220 | <3.3 | 74 | 2 (≈ 1.34 µg/mL) |  |  |  | 
COc1c(C#N)cc(O[C@H]2CC[C@@](C)(C(=O)O)CC2)cc1C(=O)N[C@@H]1[C@H]2CC[C@H](C2)[C@@H]1C(=O)NCC1(C)CCC1 [Example 404] | 19 | 11 |  |  | 2.3 | 50 | 1000 (≈ 552 µg/mL) |  |  |  | 86

Further lines, with some results ahead:

hepatocyte CLint [2] [µL/min/1e6 cells] | hepatocyte CLint at 1 µM [3] [µL/min/1e6 cells] | Test A Sinf ([4]; RXFP1 Hu cAMP) [%] | EC50 [4, 8] [nM] | Test B Human Plasma Protein Binding (% free) [5] [% free] | microsomal CLint [6] [µL/min/mg] | solubility [7] [µM] | Compound | significant blood pressure drop ([1]; approximately one third of the patients, after receiving serelaxin intravenously) [mm Hg] | markers of cardiac, renal and hepatic damage and congestion ([1]; continuous intravenous administration to hospitalized patients) | clearance from the patients' circulation ([1]; patients, positive effects rapidly disappeared once intravenous injection stopped) | EC50 ([4]; Test A EC50, RXFP1 Hu cAMP) [nM]
29 | 17 | 106 | 93 | 3 | 240 | 29 (≈ 16.3 µg/mL) | CCC(CC)[C@H](C)NC(=O)[C@H]1[C@@H]2CC[C@@H](C2)[C@H]1NC(=O)c1cc(O[C@H]2CC[C@@](C)(C(=O)O)CC2)c(F)cc1OC (single isomer, unassigned) [Example 144, (1S,4s)-4-(5-(((1S,2R,3S,4R)-3-(((R*)-3-Ethylpentan-2-yl)carbamoyl)bicyclo-[2.2.1]heptan-2-yl)carbamoyl)-2-fluoro-4-methoxyphenoxy)-1-methylcyclohexane-1-carboxylic acid] |  |  |  | 
52 | 30 | 97 | 810 | 3.4 | 190 | 2.5 (≈ 1.4 µg/mL) | COc1cc(F)c(O[C@H]2CC[C@@](C)(C(=O)O)CC2)cc1C(=O)N[C@@H]1[C@H]2CC[C@H](C2)[C@@H]1C(=O)NC(C(C)C)C(C)C [Example 40] |  |  |  | 
21 | 16 | 108 | 420 | 9.3 | 58 | 850 (≈ 565 µg/mL) | COc1cc(F)c(-c2ncc(CCC(=O)O)cn2)cc1C(=O)N[C@@H]1[C@H]2CC[C@H](C2)[C@@H]1C(=O)Nc1cccc(S(=O)(=O)C(F)(F)F)c1 [Example 323, 3-(2-(2-Fluoro-4-methoxy-5-(((1S,2R,3S,4R)-3-((3-((trifluoromethyl)sulfonyl)phenyl)carbamoyl)bicyclo[2.2.1]heptan-2-yl)carbamoyl)phenyl)pyrimidin-5-yl)propanoic acid] |  |  |  | 
19 | 18 | 106 | 160 | 1.8 | 36 | 1000 (≈ 585 µg/mL) | COc1cc(F)c(O[C@H]2CC[C@@H](C(=O)O)CC2)cc1C(=O)N[C@@H]1CCC[C@@H]1C(=O)Nc1ccc(F)c(C(F)(F)F)c1 [Example 492] |  |  |  | 
7 | 5 | 125 | 13 | <0.070 | 9.4 | 1000 (≈ 651 µg/mL) | COc1cc(F)c(O[C@H]2CC[C@@H](C(=O)O)CC2)cc1C(=O)N[C@@H]1[C@@H]2CC[C@@H](C2)[C@@H]1C(=O)Nc1cccc(S(F)(F)(F)(F)F)c1 [Example 509, (1S,4s)-4-(2-Fluoro-4-methoxy-5-(((1R,2R,3S,4S)-3-((3-(pentafluoro-A6-sulfaneyl)phenyl)carbamoyl)bicyclo[2.2.1]heptan-2-yl)carbamoyl)phenoxy)cyclohexane-1-carboxylic acid] |  |  |  | 
